Assay results as given in article PMC10208956, “Microbial peptides activate tumour-infiltrating lymphocytes in glioblastoma” (Nature, 2023).
Read-outs that look alike come from different tables or passages of the source.

Columns and labels:
[1] = test system: isolated TIL-derived CD4+ TCCs; experiment: All isolated TCCs tested against SIN3A* peptide: proliferation (SI); type: cell-based, human; settings: for SI: proliferation, sheet 2b
[2] = test system: isolated TIL-derived CD4+ TCCs; experiment: All isolated TCCs tested against SIN3A* peptide: IFNγ ELISA; type: cell-based, human; design: unit not given beside the values
TCC88 = settings: for Proliferation (SI), peptide dose titration: sheet f

Ac-QPVEFNHAIHYVN-NH2 [SIN3A*]
SI ([1]; TCC4): 326.128 | SI ([1]; TCC11): 238.815 | SI ([1]; TCC12): 287.573 | SI ([1]; TCC13): 453.401 | SI ([1]; TCC15): 28.5845 | SI ([1]; TCC16): 23.5776 | SI ([1]; TCC20): 244.524 | SI ([1]; TCC29): 34.8583 | SI ([1]; TCC31): 128.595 | SI ([1]; TCC32): 5.805 | SI ([1]; TCC33): 313.375 | SI ([1]; TCC35): 7.243 | SI ([1]; TCC37): 2.779 | SI ([1]; TCC38): 611.635 | SI ([1]; TCC43): 28.9619 | SI ([1]; TCC47): 29.6013 | SI ([1]; TCC52): 25.0598 | SI ([1]; TCC56): 22.816 | SI ([1]; TCC57): 3.669 | SI ([1]; TCC60): 23.5877 | SI ([1]; TCC63): 17.3519 | SI ([1]; TCC67): 7.121 | SI ([1]; TCC68): 7.155 | SI ([1]; TCC72): 5.137 | SI ([1]; TCC75): 11.5536 | SI ([1]; TCC76): 2.574 | SI ([1]; TCC88): 34.5634 | SI ([1]; TCC89): 2.064 | SI ([1]; TCC90): 56.5299 | SI ([1]; TCC91): 28.9154 | SI ([1]; TCC92): 23.8373 | SI ([1]; TCC93): 31.4988 | SI ([1]; TCC94): 41.408 | SI ([1]; TCC96): 17.6927 | SI ([1]; TCC97): 56.4388 | SI ([1]; TCC98): 67.9438 | SI ([1]; TCC99): 7.081 | SI ([1]; TCC101): 5.504 | SI ([1]; TCC102): 3.298 | SI ([1]; TCC103): 23.6756 | SI ([1]; TCC104): 20.3791 | SI ([1]; TCC107): 14.7872 | SI ([1]; TCC109): 67.7177 | SI ([1]; TCC110): 38.4196 | SI ([1]; TCC111): 16.0477 | SI ([1]; TCC112): 3.861 | SI ([1]; TCC113): 9.948 | SI ([1]; TCC114): 19.6549 | SI ([1]; TCC115): 9.682 | SI ([1]; TCC116): 36.7042 | SI ([1]; TCC118): 2.382 | SI ([1]; TCC120): 8.436 | SI ([1]; TCC121): 46.4714 | SI ([1]; TCC124): 44.5013 | SI ([1]; TCC126): 30.498 | SI ([1]; TCC127): 40.4213 | SI ([1]; TCC128): 20.9837 | SI ([1]; TCC129): 2.6751 | SI ([1]; TCC130): 24.2362 | SI ([1]; TCC132): 2.2794 | SI ([1]; TCC133): 8.094 | SI ([1]; TCC134): 2.175 | SI ([1]; TCC135): 13.0838 | SI ([1]; TCC137): 37.685 | SI ([1]; TCC138): 0.96 | CD4+ TCCs that responded by proliferation or production of IFNγ ([1]; TCCs isolated from SIN3A*-stimulated TILs, 3 days, Fig. 2b): 70 out of 124 | ΔIFN-γ ([2]; TCC4, sheet 2b): 149.53 | ΔIFN-γ ([2]; TCC11, sheet 2b): 677.024 | ΔIFN-γ ([2]; TCC12, sheet 2b): 3046.79 | ΔIFN-γ ([2]; TCC13, sheet 2b): 3192.25 | ΔIFN-γ ([2]; TCC15, sheet 2b): 3025.62 | ΔIFN-γ ([2]; TCC16, sheet 2b): 180.455 | ΔIFN-γ ([2]; TCC20, sheet 2b): 364.759 | ΔIFN-γ ([2]; TCC29, sheet 2b): 1013.6 | ΔIFN-γ ([2]; TCC31, sheet 2b): 514.2 | ΔIFN-γ ([2]; TCC33, sheet 2b): 2998.1 | ΔIFN-γ ([2]; TCC35, sheet 2b): 228.964 | ΔIFN-γ ([2]; TCC38, sheet 2b): 2702.02 | ΔIFN-γ ([2]; TCC43, sheet 2b): 1674.62 | ΔIFN-γ ([2]; TCC47, sheet 2b): 2470.16 | ΔIFN-γ ([2]; TCC52, sheet 2b): 3139.72 | ΔIFN-γ ([2]; TCC56, sheet 2b): 642.429 | ΔIFN-γ ([2]; TCC57, sheet 2b): 2874.97 | ΔIFN-γ ([2]; TCC60, sheet 2b): 2990.72 | ΔIFN-γ ([2]; TCC63, sheet 2b): 2437.29 | ΔIFN-γ ([2]; TCC64, sheet 2b): 999.502 | ΔIFN-γ ([2]; TCC68, sheet 2b): 1874.1 | ΔIFN-γ ([2]; TCC71, sheet 2b): 665.867 | ΔIFN-γ ([2]; TCC74, sheet 2b): 114.375 | ΔIFN-γ ([2]; TCC75, sheet 2b): 2585.8 | ΔIFN-γ ([2]; TCC76, sheet 2b): 3066.75 | ΔIFN-γ ([2]; TCC80, sheet 2b): 218.522 | ΔIFN-γ ([2]; TCC88, sheet 2b): 3049.73 | ΔIFN-γ ([2]; TCC90, sheet 2b): 3011.57 | ΔIFN-γ ([2]; TCC91, sheet 2b): 1519.81 | ΔIFN-γ ([2]; TCC92, sheet 2b): 2090.54 | ΔIFN-γ ([2]; TCC93, sheet 2b): 2670.59 | ΔIFN-γ ([2]; TCC94, sheet 2b): 2350.89 | ΔIFN-γ ([2]; TCC96, sheet 2b): 2552.89 | ΔIFN-γ ([2]; TCC97, sheet 2b): 2298.23 | ΔIFN-γ ([2]; TCC98, sheet 2b): 2713.07 | ΔIFN-γ ([2]; TCC99, sheet 2b): 3298.51 | ΔIFN-γ ([2]; TCC101, sheet 2b): 3002.86 | ΔIFN-γ ([2]; TCC102, sheet 2b): 3070.31 | ΔIFN-γ ([2]; TCC103, sheet 2b): 2311.95 | ΔIFN-γ ([2]; TCC104, sheet 2b): 2494.03 | ΔIFN-γ ([2]; TCC107, sheet 2b): 2341.01 | ΔIFN-γ ([2]; TCC109, sheet 2b): 2148.29 | ΔIFN-γ ([2]; TCC110, sheet 2b): 2115.13 | ΔIFN-γ ([2]; TCC111, sheet 2b): 2750.31 | ΔIFN-γ ([2]; TCC112, sheet 2b): 334.245 | ΔIFN-γ ([2]; TCC113, sheet 2b): 2127.79 | ΔIFN-γ ([2]; TCC114, sheet 2b): 270.204 | ΔIFN-γ ([2]; TCC115, sheet 2b): 2141.31 | ΔIFN-γ ([2]; TCC116, sheet 2b): 2065.23 | ΔIFN-γ ([2]; TCC117, sheet 2b): 2609.06 | ΔIFN-γ ([2]; TCC120, sheet 2b): 5141.59 | ΔIFN-γ ([2]; TCC121, sheet 2b): 3587.93 | ΔIFN-γ ([2]; TCC124, sheet 2b): 8256.17 | ΔIFN-γ ([2]; TCC125, sheet 2b): 202.234 | ΔIFN-γ ([2]; TCC126, sheet 2b): 7530.28 | ΔIFN-γ ([2]; TCC127, sheet 2b): 9381.79 | ΔIFN-γ ([2]; TCC128, sheet 2b): 4427.79 | ΔIFN-γ ([2]; TCC129, sheet 2b): 4034.06 | ΔIFN-γ ([2]; TCC130, sheet 2b): 4723.17 | ΔIFN-γ ([2]; TCC131, sheet 2b): 125.708 | ΔIFN-γ ([2]; TCC132, sheet 2b): 7560.44 | ΔIFN-γ ([2]; TCC133, sheet 2b): 4444.38 | ΔIFN-γ ([2]; TCC134, sheet 2b): 2468 | ΔIFN-γ ([2]; TCC135, sheet 2b): 4703.02 | ΔIFN-γ ([2]; TCC137, sheet 2b): 3613.61 | ΔIFN-γ ([2]; TCC138, sheet 2b): 0 | SI: TCC88 (TCC88; 3 h): 20.6 | Proliferation (SI), peptide dose titration (TCC88; peptide concentration 10-1 (unit not given), replicate 1): 42.2997 | Proliferation (SI), peptide dose titration (TCC88; peptide concentration 10-1 (unit not given), replicate 2): 45.1904 | Proliferation (SI), peptide dose titration (TCC88; peptide concentration 10-1 (unit not given), replicate 3): 49.4521 | Proliferation (SI), peptide dose titration (TCC88; peptide concentration 10-2 (unit not given), replicate 1): 1.135 | Proliferation (SI), peptide dose titration (TCC88; peptide concentration 10-2 (unit not given), replicate 2): 0.9523 | Proliferation (SI), peptide dose titration (TCC88; peptide concentration 10-2 (unit not given), replicate 3): 1.168 | Proliferation (SI), peptide dose titration (TCC88; peptide concentration 10-3 (unit not given), replicate 1): 0.8172 | Proliferation (SI), peptide dose titration (TCC88; peptide concentration 10-3 (unit not given), replicate 2): 0.7497 | Proliferation (SI), peptide dose titration (TCC88; peptide concentration 10-3 (unit not given), replicate 3): 0.8105 | Proliferation (SI), peptide dose titration (TCC88; peptide concentration printed 10, fifth line r7 (unit not printed), replicate 1): 28.2921 | Proliferation (SI), peptide dose titration (TCC88; peptide concentration printed 10, fifth line r7 (unit not printed), replicate 2): 32.0878 | Proliferation (SI), peptide dose titration (TCC88; peptide concentration printed 10, fifth line r7 (unit not printed), replicate 3): 32.0203 | Proliferation (SI), peptide dose titration (TCC88; peptide concentration printed 10, fourth line r6 (unit not printed), replicate 1): 44.2381 | Proliferation (SI), peptide dose titration (TCC88; peptide concentration printed 10, fourth line r6 (unit not printed), replicate 2): 56.0371 | Proliferation (SI), peptide dose titration (TCC88; peptide concentration printed 10, fourth line r6 (unit not printed), replicate 3): 57.6243
